Source: patent publication US9574216B2, “Auto-indicible expression system, and the use thereof for producing useful metabolites using a bacterium of the family enterobacteriaceae” (priority 2012, dated 2017)

Tests used:
[1] = test system: β-galactosidase LacZ; test: Activity of β-galactosidase LacZ by Miller's method; format: cell-based, E. coli; conditions: strain B7; +IPTG, 1 mM; middle-logarithmic phase, M9:LB (9:1) with glucose 0.4%
Experimental: For the measurement of β-galactosidase activity, the strains were grown to the middle-logarithmic phase in M9:LB (9:1, v/v) medium supplemented with glucose (0.4%, w/v). The medium for the strains having ilvAYC deletion and AHAS-deficient strains was additionally supplemented with Ile (25 mg/1) and Val (25 mg/1). Activity of β-galactosidase was measured according to Miller's method (Miller J. H. (1972) Experiments in molecular genetics. Cold Spring Harbor Laboratory, Cold Spring Harbor). The data presented in Table 2 indicate that expression level of the reporter lacZ gene under PilvC promoter varies within the range of more than two orders of magnitude depending on the genetic background. The maximal expression level was provided by the E. coli strains modified to overexpress L-valine resistant AHAS I (the product of the ilvBN4 genes) or/and containing inactivated the isomeroreductase IlvC encoding gene (ilvC).

[2] = target: T1, AHAS I (Escherichia coli, UniProt P08142+P0ADF8, N17K); test: Activity of AHAS I in crude cell extracts with or without addition of 10 mM L-Val; format: biochemical, E. coli
T1 construct: expressed in transfected cells; host or cells: E. coli K12 B7 (VKPM B-7) ΔilvGM ΔilvIH with a chromosomal ilvBN4 operon under PilvC (or PL); crude cell extracts
T1 sequence (P08142 whole entry): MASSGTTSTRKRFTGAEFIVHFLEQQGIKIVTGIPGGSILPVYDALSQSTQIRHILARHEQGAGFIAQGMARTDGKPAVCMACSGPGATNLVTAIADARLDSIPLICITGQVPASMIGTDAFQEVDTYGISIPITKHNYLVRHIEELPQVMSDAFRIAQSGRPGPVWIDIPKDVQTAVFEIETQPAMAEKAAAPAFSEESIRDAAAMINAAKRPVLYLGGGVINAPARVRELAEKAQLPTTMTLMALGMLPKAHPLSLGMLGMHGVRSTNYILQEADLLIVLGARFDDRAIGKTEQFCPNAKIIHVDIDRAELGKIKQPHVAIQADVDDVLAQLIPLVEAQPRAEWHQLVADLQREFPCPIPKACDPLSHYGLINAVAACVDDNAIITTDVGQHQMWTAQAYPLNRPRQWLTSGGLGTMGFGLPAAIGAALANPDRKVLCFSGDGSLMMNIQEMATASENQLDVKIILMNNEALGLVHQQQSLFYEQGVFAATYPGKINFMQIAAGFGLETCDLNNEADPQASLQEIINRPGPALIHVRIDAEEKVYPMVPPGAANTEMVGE
T1 sequence (P0ADF8 whole entry N17K): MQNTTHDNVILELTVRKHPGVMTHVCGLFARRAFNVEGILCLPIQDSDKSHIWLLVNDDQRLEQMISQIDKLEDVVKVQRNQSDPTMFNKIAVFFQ
Experimental: Cells were grown to the middle-logarithmic phase in M9:LB (9:1, v/v) medium supplemented with glucose (0.4%, w/v). Activity of AHAS I in crude cells extracts was measured with or without addition of 10 mM L-Val according to the assay described in Stormer F. and Umbarger H., Biochem. Biophys. Res. Commun., 1964, 17(5):587-592.

Structure (SMILES): CC(C)S[C@@H]1O[C@H](CO)[C@H](O)[C@H](O)[C@H]1O [IPTG]
- Specific activity of β-galactosidase [1]: 1200 Miller's units

Structure (SMILES): CC(C)[C@H](N)C(=O)O [L-Val, L-valine]
- AHAS I activity with L-Val, 10 mM (percent of value, measured without L-Val addition) ([2]; crude extract of strain B7 ΔilvGM ΔilvIH PL-ilvBN4 (control)): 86%
- AHAS I activity with L-Val, 10 mM ([2]; crude extract of strain B7 ΔilvGM ΔilvIH PL-ilvBN4 (control), mean of triplicate): 51 nmol/min/mg
- AHAS I activity with L-Val, 10 mM (percent of value, measured without L-Val addition) ([2]; crude extract of strain B7 ΔilvGM ΔilvIH cat-ilvY-PilvC-ilvBN4 cl.1): 88%
- AHAS I activity with L-Val, 10 mM ([2]; crude extract of strain B7 ΔilvGM ΔilvIH cat-ilvY-PilvC-ilvBN4 cl.1, mean of triplicate): 80 nmol/min/mg
- AHAS I activity with L-Val, 10 mM (percent of value, measured without L-Val addition) ([2]; crude extract of strain B7 ΔilvGM ΔilvIH cat-ilvY-PilvC-ilvBN4 cl.4): 88%
- AHAS I activity with L-Val, 10 mM ([2]; crude extract of strain B7 ΔilvGM ΔilvIH cat-ilvY-PilvC-ilvBN4 cl.4, mean of triplicate): 106 nmol/min/mg
